Measured values published in patent publication US20190167725A1, “COMPOSITION AND METHOD FOR IMPROVING EFFICACY OF STEM CELLS” (University-Industry Cooperation Group of Kyung Hee …, priority 2016, published 2019).

Experiments:
[1] = test system: ST2 cells (mouse bone marrow-derived MSCs); details: 10 mM, 36 hours treatment, 10 days culture, colonies 1 mm or greater
Experimental: Then, the cells were added to a plate at a concentration of 5.7×10^4 cells/well and cultured under conditions of 37° C. and 5% CO2 for 10 days. The plate was then stained with a 1% crystal violet staining solution (Sigma-Aldrich) and the number of colonies was counted under a stereomicroscope. In particular, cell populations with a diameter of 1 mm or greater were considered as colonies.

[2] = test system: mouse bone marrow-derived MSCs; details: 200 mM in drinking water for 7 days, vs drinking water without sodium acetate
Experimental: Each C57BL/6 mouse was fed drinking water with or without sodium acetate (200 mM) for 7 days, and femurs were collected from each mouse. The collected femurs were crushed using a mortar, treated with 0.2% type I collagenase (Worthington), and thereby the bone marrow cells attached to the bones were collected.

[3] = test system: ST2 cells (mouse bone marrow-derived MSCs); details: 10 mM, 12 hours, growth factor reduced Matrigel
Experimental: Then, the upper part of each insert was coated with 50 μL of growth factor reduced Matrigel (BD Bioscience). […] The lower chamber membrane was confirmed using a Nikon ECLIPSE TS 100 microscope.

[4] = test system: human bone marrow-derived MSCs (hMSCs); details: concentration series, serum-free DMEM
Description: The human bone marrow-derived MSCs (hMSCs) were obtained from Lonza (Basel, Switzerland) and cultured in MSCGM medium (Lonza). Cells which underwent 3 to 6 subcultures were used in the experiment.

[5] = test system: ST2 cells (mouse bone marrow-derived MSCs); details: 0 mM to 10 mM in lower chamber, 12 hours
Experimental: The cells were maintained in RPMI1640 medium (Invitrogen) containing 10% FBS, 1% penicillin, and streptomycin (Invitrogen). The cells were cultured to a confluence of 80%, recovered with 0.25% trypsin/EDTA (Invitrogen), and subcultured in a ratio of 1:3 to 1:4. The cells which underwent 5 to 8 subcultures were used in the experiment. The cells were maintained in a 37° C. incubator containing 5% CO2.
Millicell culture plate inserts with a pore size of 8 μm (EMD Millipore) were coated with type I collagen (0.5 μg/mL). The ST2 cells (2.5×10^4 cells) were suspended in normal growth medium and added into an upper chamber. After culturing the cells for 5 to 6 hours, the medium was replaced with DMEM medium containing 2% FBS and 1% penicillin and streptomycin.
After culturing for an additional 12 hours, each insert was fixed with 4% formaldehyde in the presence of PBS at room temperature for 10 minutes. The ST2 cells were stained with a hematoxylin solution for 30 minutes, and the cells remaining on the upper chamber membrane were removed using cotton swabs. The lower chamber membrane was confirmed using the Nikon ECLIPSE TS 100 microscope. The number of cells in each cell image was counted using Adobe Photoshop CS6.

[6] = test system: human bone marrow-derived MSCs (hMSCs); details: 10 mM, two subcultures, 14 days culture, colonies 3 mm or greater
Experimental: Then, the cells were added at a concentration of 5×10^2 cells/well (10 cm dish) to low-glucose DMEM (GE Healthcare Life Sciences) containing 10% FBS, 1% penicillin and streptomycin (Invitrogen), and 1% L-glutamine in a plate, and the plate was incubated under conditions of 37° C. and 5% CO2 for 14 days. The plate was then fixed with 100% methanol, stained with a 1% crystal violet staining solution (Sigma-Aldrich), and the number of colonies was counted under a stereomicroscope. In particular, cell populations of human bone marrow-derived MSCs with a diameter of 3 mm or greater were considered as colonies.

[7] = test system: IL-10; details: 10 mM, 48 hours, ST2 cells, vs untreated control (CON)
Experimental: (§1) ST2 cells (3.8×10^5 cells) were added to a 6-well plate under the condition of normal growth medium and cultured overnight. The medium was replaced with low-glucose DMEM medium without FBS and the cells were cultured for 18 hours. Then, the cells were treated with 10 mM sodium acetate (C2) for 48 hours or not treated (CON).
(§2) A cell lysate was obtained from the sample, and total RNA was isolated using TRIzol. The cDNA was synthesized from the total RNA, and the expression levels of mRNAs of VEGF and IL-10 in cells were measured by real-time PCR using primers for VEGF and IL-10 and SYBR green PCR Master Mix (fluorescent material).

[8] = test system: VEGF; details: 10 mM, 48 hours, ST2 cells, vs untreated control (CON)
Experimental: as §1, §2

[9] = test system: hematopoietic progenitor cells (Lin-/Sca1+/c-Kit+, LSK); details: sodium acetate 4 nmol/kg subcutaneous, blood collected after 10 minutes, vs normal control group
Experimental: Populations of circulating hematopoietic progenitor cells (HPCs), lineage negative, Sca-1 positive, and c-Kit positive (Lin^−/Sca1^+/c-Kit^+, LSK) cells were analyzed by a flow cytometry analyzer.
Monocytes were separated by Ficoll centrifugation. Then, hematopoietic progenitor cells were examined using anti-mouse CD4-FITC (Biolegend, San Diego, Calif.), anti-mouse CD49b-FITC (Biolegend), anti-mouse CD11b-FITC (Biolegend), anti-mouse B220-FITC (Biolegend), anti-mouse Gr-1-FITC (Biolegend), anti-mouse CD8-FITC (Biolegend), anti-mouse Ly-6A/E (Sca-1)-PE (Biolegend), and anti-mouse CD117 (c-Kit)-APC (Biolegend).

Row | SMILES | colony-forming ability (CFU-F) of mouse bone marrow-derived MSCs [1] | increase in frequency of cell population of mouse bone marrow-derived MSCs (CFU-F) [2] | increase in size of cell population of mouse bone marrow-derived MSCs (CFU-F) [2] | invasion (number of cells through Matrigel) [3] | mobility of human bone marrow-derived MSCs (hMSCs) [4] | mobility of ST2 cells (number of migrated cells) [5] | enhancement of colony-forming ability (CFU-F) of hMSCs [6] | increase of expression of IL-10 mRNA [7] | increase of expression of VEGF mRNA [8] | hematopoietic progenitor cells (LSK) in the peripheral blood [9]
1 | CC(=O)[O-].[Na+] [sodium acetate] | significantly increased | about 2 fold | about 2 fold | significantly increased | increased in a manner dependent on the concentration | increase in a manner dependent on the concentration | about 5 fold | about 2.4 fold | about 2.5 fold | enhancement of mobility from the bone marrow to the peripheral blood
2 | CCC(=O)[O-].[Na+] [sodium propionate] | enhancement of a CFU-F-forming ability |  |  |  |  | increase in a manner dependent on the concentrations |  |  |  | 
3 | CCCC(=O)[O-].[Na+] [sodium butyrate] |  |  |  |  |  | increase in a manner dependent on the concentrations |  |  |  | 
